For 3 compounds, IC50 results are on record in ChEMBL document CHEMBL1949583, “Credneramides A and B: neuromodulatory phenethylamine and isopentylamine derivatives of a vinyl chloride-containing fatty acid from cf. Trichodesmium sp. nov” (J Nat Prod, 2012).

Molecules are shown by their SMILES.

The test can be described thus: Neuromodulatory activity in mouse cerebrocortical neurons assessed as inhibition of calcium oscillation. The format is functional. To be noted: Cerebral cortex neuron.

Regarding `CCC/C(=C\Cl)C/C=C/CCC(=O)NCCc1ccccc1` [CREDNERAMIDE A], the IC50 (in general, the concentration at which inhibition is half-maximal) came to 4 µM. Turning to `CCC/C(=C\Cl)C/C=C/CCC(=O)NCCC(C)C` [CREDNERAMIDE B], the IC50 came to 3.9 µM. `CCC/C(=C\Cl)C/C=C/CCC(=O)O` [CREDNERIC ACID]: the IC50 came out at 8.2 µM.
